Experimental data taken from patent publication US11952584B2, “Functional peptides having antimicrobial activity against phytopathogenic microorganisms” (TOYOTA JIDOSHA KABUSHIKI KAISHA, priority 2019, dated 2024).
Several values for one entry are separate records, joined by “and”; a condition that tells them apart may be missing. Equal values may be shown once. Read-outs that look alike come from different tables or passages of the source.

Key:
Pyricularia oryzae = type: cell-based; conditions: 25° C., 1 day or 2 days
[1] = tested on: Colletotrichum destructivum; type: cell-based; conditions: 25° C., 1 day or 2 days
[2] = tested on: plant pathogenic filamentous fungi; type: cell-based; conditions: summary of Table 3
[3] = tested on: Colletotrichum destructivum; assay: Colletotrichum destructivum leaf inoculation test (Chinese cabbage leaf); type: in vivo; conditions: 25° C., 4 days, lesions by visual inspection
Description: In the present example, a suspension comprising Colletotrichum destructivum and a peptide to be tested was dropped on a plant leaf, and lesions were then observed by visual inspection to evaluate the antimicrobial activity of the tested peptide. First, the pores of Colletotrichum destructivum were suspended in water to result in a spore concentration of 5×10^5 spores/ml, so as to prepare a water suspension of spores. Subsequently, peptides to be tested (TsORF18 (full length), TsORF18-40 a.a., and TsORF18-2) were each added to the water suspension of spores, so that the final concentration of the peptides to be tested became 0 μM, 1 μM, 10 μM or 100 μM. Thereafter, 10 μl each of the water suspension of spores containing the peptide to be tested was dropped on the front side and the back side of the leaf of Chinese cabbage (variety name: “Kigokoro 85”). In this condition, incubation was carried out at 25° C. for 4 days. Thereafter, the front and back sides of the leaf were observed by visual inspection.

Fusarium oxysporum = type: cell-based
[4] = tested on: Colletotrichum orbiculare; type: cell-based; conditions: 25° C., 1 day or 2 days
Botrytis cinerea [5] = type: cell-based; conditions: 25° C., 1 day or 2 days
Botrytis cinerea [6] = assay: Botrytis cinerea leaf inoculation test (tomato leaf); type: in vivo; conditions: peptide 100 μM; tomato leaf, 25° C., 2 days, lesions by visual inspection
Method: In the present example, a suspension comprising Botrytis cinerea and a peptide to be tested was dropped on a plant leaf, and lesions were then observed by visual inspection to evaluate the antimicrobial activity of the tested peptide. First, the pores of Botrytis cinerea were suspended in a potato dextrose broth (PDB) to result in a spore concentration of 5×10^5 spores/ml, so as to prepare a PDB suspension spore solution. Subsequently, a peptide to be tested (TsORF18-2) was added to the PDB suspension spore solution, so that the final concentration of the peptide to be tested became 0 μM, 1 μM, 10 μM or 100 μM. It is to be noted that, as peptides to be tested, TsORF18 (full length) and TsORF18-40 a.a. were also used in the same manner as that of TsORF18-2. TsORF18 (full length) was dissolved in DMSO and was then used. On the other hand, TsORF18-2 and TsORF18-40 a.a were each dissolved in Milli-Q water and were then used. Thereafter, 10 μl each of the PDB suspension spore solution containing the peptide to be tested was dropped on the front side and the back side of the leaf of tomato (variety name: “Ponte Rosa”). In this condition, incubation was carried out at 25° C. for 2 days. Thereafter, the front and back sides of the leaf were observed by visual inspection.

Row | Substance | Plate antimicrobial activity test Pyricularia oryzae (level) (Pyricularia oryzae; peptide 1 μM) | Plate antimicrobial activity test Pyricularia oryzae (level) (Pyricularia oryzae; peptide 10 μM) | Plate antimicrobial activity test Pyricularia oryzae (level) (Pyricularia oryzae; peptide 100 μM) | Plate antimicrobial activity test Colletotrichum destructivum (level) ([1]; peptide 1 μM) | Plate antimicrobial activity test Colletotrichum destructivum (level) ([1]; peptide 10 μM) | Plate antimicrobial activity test Colletotrichum destructivum (level) ([1]; peptide 100 μM) | germination inhibitory activity against plant pathogenic filamentous fungi (in words) [2] | Leaf inoculation test Chinese cabbage/Colletotrichum destructivum ([3]; peptide 1 μM) | Leaf inoculation test Chinese cabbage/Colletotrichum destructivum ([3]; peptide 10 μM) | Leaf inoculation test Chinese cabbage/Colletotrichum destructivum ([3]; peptide 100 μM) | Plate antimicrobial activity test Fusarium oxysporum (level) (Fusarium oxysporum) | Plate antimicrobial activity test Collectotrichum orbiculare (level) ([4]; peptide 1 μM) | Plate antimicrobial activity test Collectotrichum orbiculare (level) ([4]; peptide 10 μM) | Plate antimicrobial activity test Collectotrichum orbiculare (level) ([4]; peptide 100 μM) | Plate antimicrobial activity test Botrytis cinerea (level) (Botrytis cinerea [5]; peptide 1 μM) | Plate antimicrobial activity test Botrytis cinerea (level) (Botrytis cinerea [5]; peptide 10 μM) | Plate antimicrobial activity test Botrytis cinerea (level) (Botrytis cinerea [5]; peptide 100 μM) | Leaf inoculation test Tomato/Botrytis cinerea (Botrytis cinerea [6])
1 | FWRIWKGK (listed as Solanum lycopersicum) [TsORF18-2-8aa-14] | 0 | 0 | 0 | 0 | 0 | 3 | extremely excellent germination inhibitory activity | Δ | ∘ | ∘ | 3 and 0 | 0 | 0 | 3 | 0 | 0 | 3 | –
2 | KFWRI (listed as Solanum lycopersicum) [TsORF18-2-5aa-13] | 0 | 0 | 1 | 0 | 0 | 3 | extremely excellent germination inhibitory activity | – | ∘ | ∘ | 3 and 0 | 0 | 0 | 3 | 0 | 0 | 3 | –
3 | KFWRIWKG (listed as Solanum lycopersicum) [TsORF18-2-8aa-13] | 0 | 0 | 0 | 0 | 0 | 3 | extremely excellent germination inhibitory activity | – | ∘ | ∘ | 3 and 2 and 0 | 0 | 0 | 3 | 0 | 0 | 3 | ∘
4 | RKFWR (listed as Solanum lycopersicum) [TsORF18-2-5aa-12] | 0 | 0 | 0 | 0 | 0 | 3 | extremely excellent germination inhibitory activity | – | ∘ | ∘ | 3 and 0 | 0 | 0 | 2 | 0 | 0 | 3 | –
5 | RKFWRIWK (listed as Solanum lycopersicum) [TsORF18-2-8aa-12] | 0 | 0 | 0 | 0 | 0 | 3 | extremely excellent germination inhibitory activity | Δ | ∘ | ∘ | 3 and 2 and 0 | 0 | 0 | 3 | 0 | 1 | 3 | ∘
6 | RTRKFWRI (listed as Solanum lycopersicum) [TsORF18-2-8aa-10] | 0 | 0 | 1 | 0 | 0 | 3 | extremely excellent germination inhibitory activity | – | ∘ | ∘ | 3 and 1 and 0 | 0 | 0 | 3 | 0 | 0 | 3 | –
7 | TRKFWRIW (listed as Solanum lycopersicum) [TsORF18-2-8aa-11] | 0 | 0 | 0 | 0 | 0 | 3 | extremely excellent germination inhibitory activity | – | ∘ | ∘ | 3 and 0 | 0 | 0 | 3 | 0 | 0 | 3 | ∘
8 | WRIWKGKT (listed as Solanum lycopersicum) [TsORF18-2-8aa-15] | 0 | 0 | 0 | 0 | 0 | 3 | extremely excellent germination inhibitory activity | – | – | – | 3 and 0 | 0 | 0 | 3 | 0 | 0 | 3 | –
